Laboratory results reported in patent US20060241114A1, “Derivatives of azasugars as anticancer agents” (priority 2003, published 2006).

How the values were obtained:
[1] = tested on: MCF7ADR (adriamycin resistant breast adenocarcinoma); assay: In vitro growth inhibition screen (sulphorhodamine B), MCF7ADR; assay type: cell-based, human; conditions: MCF7ADR cells, incubated for 48 hours, sulphorhodamine B dye; read-out: GI50 (concentration which inhibits the cell growth by 50%), MCF7ADR Adriamycin Resistant Breast adenocarcinoma
Method in brief: (§1)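 SRB assay, 48 h treatment, RPMI 1640 + 10% FCS, 37° C, 5% CO2; dose range ≧100 μM–10 nM in ten-fold steps; OD 490 nm; GI50 derived.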

[2] = tested on: LOX (melanoma); assay: In vitro growth inhibition screen (sulphorhodamine B), LOX; assay type: cell-based, human; conditions: LOX cells, incubated for 48 hours, sulphorhodamine B dye; read-out: GI50 (concentration which inhibits the cell growth by 50%), LOX Melanoma
Method in brief: as §1

[3] = tested on: DU145 (prostate carcinoma); assay: In vitro growth inhibition screen (sulphorhodamine B), DU145; assay type: cell-based, human; conditions: DU145 cells, incubated for 48 hours, sulphorhodamine B dye; read-out: GI50 (concentration which inhibits the cell growth by 50%), DU145 Prostate carcinoma
Method in brief: as §1

[4] = tested on: U251 (human glioblastoma); assay: In vitro growth inhibition screen (sulphorhodamine B), U251; assay type: cell-based; conditions: U251 cells, incubated for 48 hours, sulphorhodamine B dye; read-out: GI50 (concentration which inhibits the cell growth by 50%), U251 Human glioblastoma astrocytoma
Method in brief: as §1

[5] = tested on: HT29 (colorectal adenocarcinoma); assay: In vitro growth inhibition screen (sulphorhodamine B), HT29; assay type: cell-based, human; conditions: HT29 cells, incubated for 48 hours, sulphorhodamine B dye; read-out: GI50 (concentration which inhibits the cell growth by 50%), HT29 Colorectal adenocarcinoma
Method in brief: as §1

[6] = tested on: MCF7 (breast adenocarcinoma); assay: In vitro growth inhibition screen (sulphorhodamine B), MCF7; assay type: cell-based, human; conditions: MCF7 cells, incubated for 48 hours, sulphorhodamine B dye; read-out: GI50 (concentration which inhibits the cell growth by 50%), MCF7 Breast adenocarcinoma
Method in brief: as §1

| SMILES | GI50 [1] | GI50 [2] | GI50 [3] | GI50 [4] | GI50 [5] | GI50 [6] |
| --- | --- | --- | --- | --- | --- | --- |
| CCCN1C(=O)[C@H](O)[C@@H](O)[C@H](O)[C@H]1CNC(=O)Nc1ccccc1 [Compound No. 24, N-Propyl-6-N-{[phenyl]aminocarbonylamino}-D-gluco-δ-lactam] | 262 µM | 169 µM | 296 µM | 231 µM | 213 µM | 157 µM |
| CCCN1C(=O)[C@H](OCc2ccccc2)[C@@H](OCc2ccccc2)[C@H](OCc2ccccc2)[C@H]1CNC(=S)Nc1ccc2ccccc2c1 [Compound No. 2, 2,3,4-Tri-O-benzyl-6-N-{[2-naphthyl]aminothiocarbonylamino}-N-propyl-D-gluco-δ-lactam] | 229 µM | 40.9 µM | 151 µM | 172 µM | 137 µM | 175 µM |
| CCCN1C(=O)[C@H](O)[C@@H](O)[C@H](O)[C@H]1CNC(=O)Cn1cncn1 [Compound No. 66, N-Propyl-6-{2-[triazolyl]-acetyl}-D-gluco-δ-lactam] | 196 µM | 58.2 µM | 82.9 µM | 142 µM | 149 µM | 124 µM |
| CCCN1C(=O)[C@H](O)[C@@H](O)[C@H](O)[C@H]1Cn1cncn1 [Compound No. 70, 6-Triazolyl-N-propyl-D-gluco-δ-lactam] | 894 µM | 232 µM | 252 µM | 516 µM | 302 µM | 340 µM |

Stronger by GI50 [1], values ahead:

| GI50 [1] | GI50 [2] | GI50 [3] | GI50 [4] | GI50 [5] | GI50 [6] | SMILES |
| --- | --- | --- | --- | --- | --- | --- |
| 110 µM | 67.4 µM | 50.1 µM | 82.3 µM | 47.2 µM | 433 µM | CCCN1C(=O)[C@H](OCc2ccccc2)[C@@H](OCc2ccccc2)[C@H](OCc2ccccc2)[C@H]1CNC(=O)Nc1ccc(C)cc1 [Compound No. 6, 2,3,4-Tri-O-benzyl-6-N-{[p-tolyl]aminocarbonylamino}-N-propyl-D-gluco-δ-lactam] |
| 74.1 µM | 53.3 µM | 59.7 µM | 22.9 µM | 58.2 µM | 55.6 µM | CCCN1C(=O)[C@H](OCc2ccccc2)[C@@H](OCc2ccccc2)[C@H](OCc2ccccc2)[C@H]1CNC(=O)Nc1ccc(F)cc1F [Compound No. 16, 2,3,4-Tri-O-benzyl-6-N-{[2,4-difluorophenyl]aminocarbonylamino}-N-propyl-D-gluco-δ-lactam] |
| 25.3 µM | 3.8 µM | 12.2 µM | 12.6 µM | 1.9 µM | 8.1 µM | CCCN1C(=O)C(OCc2ccccc2)C(OCc2ccccc2)C(OCc2ccccc2)C1CNC(=O)CN1CCN(C)CC1 [Compound No. 59, 2,3,4-Tri-O-benzyl-6-N-{2-[N-(methyl)piperazin-1-yl]acetyl}-N-propyl-D-gluco-δ-lactam] |
